Source: patent US12252524B2, “GIP/GLP1 co-agonist compounds” (Eli Lilly and Company, priority 2018, dated 2025)
Numbered stars: 1 amine (or outer) side, 2 acyl side, 3 side chain; on linkers, the order of the positions; unused ones are H or OH. Square brackets hold non-standard residues; d marks the D form. Side chains are listed from the residue outwards. Peptide text beside a SMILES is read from it. * marks the point of attachment. C20 diacid = O=C(O)CCCCCCCCCCCCCCCCCCC(=O)*; C18 diacid = O=C(O)CCCCCCCCCCCCCCCCC(=O)*; αMePhe(2-F) = C[C@](N)(Cc1ccccc1F)C(=O)O; γGlu = O=C(O)[C@H](CCC(=O)[*:2])N[*:1]; αMeY = C[C@](N)(Cc1ccc(O)cc1)C(=O)O; αMeF = C[C@](N)(Cc1ccccc1)C(=O)O; 4Pal = N[C@@H](Cc1ccncc1)C(=O)O; αMeL = CC(C)C[C@](C)(N)C(=O)O; Orn = NCCC[C@H](N)C(=O)O; AEEA = NCCOCCOCC(=O)O; Aib = CC(C)(N)C(=O)O

Experiments:
[1] = molecular target: T1, gastric inhibitory peptide receptor (GIPR) (Homo sapiens, UniProt P48546); assay: cAMP pharmacological functional assay in presence of casein, hGIPR; assay type: cell-based; settings: HEK293 cells expressing hGIPR, 0.1% Casein, geometric mean; read-out: hGIPR cAMP Rel EC50 nM (SEM, n)
T1 sequence (P48546 22-466): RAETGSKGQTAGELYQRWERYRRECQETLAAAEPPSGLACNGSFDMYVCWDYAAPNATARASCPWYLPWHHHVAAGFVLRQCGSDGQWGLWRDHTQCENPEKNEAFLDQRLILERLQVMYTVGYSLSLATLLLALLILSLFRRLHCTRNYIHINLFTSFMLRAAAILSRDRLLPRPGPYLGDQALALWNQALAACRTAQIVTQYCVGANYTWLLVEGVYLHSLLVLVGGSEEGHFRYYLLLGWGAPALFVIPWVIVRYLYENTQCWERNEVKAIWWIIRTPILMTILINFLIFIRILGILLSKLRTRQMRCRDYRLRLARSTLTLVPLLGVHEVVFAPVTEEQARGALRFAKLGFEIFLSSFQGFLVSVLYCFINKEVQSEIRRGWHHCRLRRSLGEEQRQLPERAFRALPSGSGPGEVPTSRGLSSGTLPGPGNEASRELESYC

human GIP receptor = molecular target: T2, human GIP receptor (Homo sapiens, UniProt P48546); assay: [125I]-GIP binding (SPA), human GIP receptor; settings: read-out: hGIPR Ki, nM (SEM, n)
T2 construct: expressed in transfected cells; crude membranes
T2 sequence (P48546 22-466): T1 sequence (P48546 22-466)

human GLP-1R = human GLP-1R (Homo sapiens, UniProt P43220); assay: [125I]-GLP-1 binding (SPA), human GLP-1 receptor; set-up: expressed in transfected cells; crude membranes; settings: read-out: hGLP1R Ki, (nM) (SEM, n)
Summary of the method: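 Ki values are geometric means with SEM over independent replicates on different days, derived from IC50s fitted by four-parameter nonlinear regression. The assay used crude cell membranes in HEPES buffer, pH 7.4, containing CaCl2, MgCl2, bacitracin and TWEEN-20.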

[2] = molecular target: human GLP-1 receptor (GLP-1R) (Homo sapiens, UniProt P43220); assay: cAMP pharmacological functional assay in presence of casein, hGLP-1R; assay type: cell-based; settings: HEK293 cells expressing hGLP-1R, 0.1% Casein, geometric mean; read-out: hGLP1R cAMP Rel EC50 nM (SEM, n)
human Gcg receptor = molecular target: T3, human Gcg receptor (Homo sapiens, UniProt P47871); assay: [125I]-Glucagon binding (SPA), human Gcg receptor; settings: read-out: hGLcgR Ki, nM (SEM, n)
T3 construct: expressed in transfected cells; crude membranes
Summary of the method: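 Scintillation counts are taken after membranes and WGA beads incubate and settle for 12 hours at room temperature. Buffer is 25 mM HEPES, pH 7.4, with CaCl2, MgCl2, bacitracin and Tween-20. Ki values, from four-parameter IC50 fits, are geometric means over independent days.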

human GLP-1 receptor (GLP-1R), sequence (P43220 24-463): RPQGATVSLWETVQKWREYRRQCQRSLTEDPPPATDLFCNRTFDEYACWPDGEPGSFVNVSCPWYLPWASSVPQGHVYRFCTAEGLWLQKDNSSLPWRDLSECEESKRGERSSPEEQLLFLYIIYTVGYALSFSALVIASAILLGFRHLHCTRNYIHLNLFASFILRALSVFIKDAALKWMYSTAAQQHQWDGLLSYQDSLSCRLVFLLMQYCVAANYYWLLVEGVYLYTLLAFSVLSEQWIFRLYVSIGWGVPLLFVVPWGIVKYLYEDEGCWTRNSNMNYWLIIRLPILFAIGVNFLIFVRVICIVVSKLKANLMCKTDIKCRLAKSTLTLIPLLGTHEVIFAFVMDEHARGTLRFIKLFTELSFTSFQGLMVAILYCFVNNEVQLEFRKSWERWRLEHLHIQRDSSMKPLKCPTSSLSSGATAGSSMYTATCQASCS
human GLP-1R, sequence (P43220 24-463): as above
T3 sequence (P47871 26-477): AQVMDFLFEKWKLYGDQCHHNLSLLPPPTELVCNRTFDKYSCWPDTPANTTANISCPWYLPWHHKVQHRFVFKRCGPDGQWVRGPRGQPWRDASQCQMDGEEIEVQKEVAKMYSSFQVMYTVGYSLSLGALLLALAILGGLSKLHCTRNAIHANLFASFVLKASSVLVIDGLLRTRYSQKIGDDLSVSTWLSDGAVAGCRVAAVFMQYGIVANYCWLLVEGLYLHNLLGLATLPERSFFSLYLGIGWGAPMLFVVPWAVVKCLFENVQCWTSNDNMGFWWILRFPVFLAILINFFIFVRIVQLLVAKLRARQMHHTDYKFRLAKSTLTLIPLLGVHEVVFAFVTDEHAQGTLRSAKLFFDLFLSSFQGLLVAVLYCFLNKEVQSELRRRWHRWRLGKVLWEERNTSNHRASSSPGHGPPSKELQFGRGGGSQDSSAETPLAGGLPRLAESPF

| Structure (SMILES) | EC50 [1] [nM] | Ki (human GIP receptor) [nM] | Ki (human GLP-1R) [nM] | EC50 [2] [nM] | Ki (human Gcg receptor) [nM] |
| --- | --- | --- | --- | --- | --- |
| CC[C@H](C)[C@H](NC(=O)[C@H](CC(C)C)NC(=O)[C@H](Cc1ccc(O)cc1)NC(=O)[C@H](CCC(=O)O)NC(=O)[C@@H](NC(=O)[C@H](Cc1ccccc1)NC(=O)[C@H](C)NC(=O)C(C)(C)NC(=O)[C@H](CCC(N)=O)NC(=O)[C@H](C)NC(=O)[C@H](CCCCNC(=O)COCCOCCNC(=O)COCCOCCNC(=O)CC[C@H](NC(=O)CCCCCCCCCCCCCCCCCCC(=O)O)C(=O)O)NC(=O)[C@H](CCCCN)NC(=O)[C@H](CC(=O)O)NC(=O)[C@H](CC(C)C)NC(=O)[C@H](CC(C)C)NC(=O)[C@@H](NC(=O)[C@H](CO)NC(=O)[C@H](Cc1ccc(O)cc1)NC(=O)[C@H](CC(=O)O)NC(=O)[C@H](CO)NC(=O)[C@@H](NC(=O)[C@H](Cc1ccccc1)NC(=O)[C@@H](NC(=O)CNC(=O)[C@H](CC(N)=O)NC(=O)C(C)(C)NC(=O)[C@@H](N)Cc1ccc(O)cc1)[C@@H](C)O)[C@@H](C)O)[C@@H](C)CC)[C@@H](C)CC)C(=O)N[C@@H](CCC(=O)O)C(=O)NCC(=O)NCC(=O)N1CCC[C@H]1C(=O)N[C@@H](CO)C(=O)N[C@@H](CO)C(=O)NCC(=O)N[C@@H](C)C(=O)N1CCC[C@H]1C(=O)N1CCC[C@H]1C(=O)N1CCC[C@H]1C(=O)N[C@@H](CO)C(N)=O [Example 90] (H-Y[Aib]NGTFTSDYSILLDKK([AEEA-AEEA-γGlu-C20 diacid])AQ[Aib]AFIEYLIEGGPSSGAPPPS-NH2; N-terminus assumed) | 0.0361 | 0.0472 | 4.76 | 0.532 | 245 |
| CC[C@H](C)[C@H](NC(=O)[C@H](CC(C)C)NC(=O)C(C)(Cc1ccc(O)cc1)NC(=O)[C@@H](CCC(=O)O)NC(=O)[C@@H](NC(=O)[C@H](Cc1ccccc1)NC(=O)[C@H](C)NC(=O)C(C)(C)NC(=O)[C@H](CCC(N)=O)NC(=O)[C@H](C)NC(=O)[C@H](CCCCNC(=O)COCCOCCNC(=O)COCCOCCNC(=O)[C@@H](N)CCCCNC(=O)CCCCCCCCCCCCCCCCCCC(=O)O)NC(=O)[C@H](CCCN)NC(=O)[C@H](CC(=O)O)NC(=O)[C@H](CC(C)C)NC(=O)C(C)(CC(C)C)NC(=O)[C@@H](NC(=O)[C@H](CO)NC(=O)[C@H](Cc1ccncc1)NC(=O)[C@H](CC(=O)O)NC(=O)[C@H](CO)NC(=O)[C@@H](NC(=O)C(C)(Cc1ccccc1F)NC(=O)[C@@H](NC(=O)CNC(=O)[C@H](CCC(=O)O)NC(=O)C(C)(C)NC(=O)[C@@H](N)Cc1ccc(O)cc1)[C@@H](C)O)[C@@H](C)O)[C@@H](C)CC)[C@@H](C)CC)C(=O)N[C@@H](C)C(=O)NCC(=O)NCC(=O)N1CCC[C@H]1C(=O)N[C@@H](CO)C(=O)N[C@@H](CO)C(=O)NCC(=O)N[C@@H](C)C(=O)N1CCC[C@H]1C(=O)N1CCC[C@H]1C(=O)N1CCC[C@H]1C(=O)N[C@@H](CO)C(N)=O (stereo partly shown) [Example 252] | 0.093 | 0.00971 | 0.383 | 0.0483 | 26 |
| CC[C@H](C)[C@H](NC(=O)[C@H](CC(C)C)NC(=O)[C@](C)(Cc1ccc(O)cc1)NC(=O)[C@@H](CCC(=O)O)NC(=O)[C@@H](NC(=O)[C@H](Cc1ccccc1)NC(=O)[C@H](CCC(=O)O)NC(=O)C(C)(C)NC(=O)[C@H](CCC(N)=O)NC(=O)[C@H](C)NC(=O)[C@H](CCCCNC(=O)COCCOCCNC(=O)COCCOCCNC(=O)CC[C@H](NC(=O)CCCCCCCCCCCCCCCCC(=O)O)C(=O)O)NC(=O)[C@H](CCCN)NC(=O)[C@H](CC(=O)O)NC(=O)[C@H](CC(C)C)NC(=O)[C@](C)(CC(C)C)NC(=O)[C@@H](NC(=O)[C@H](CO)NC(=O)[C@H](CC(C)C)NC(=O)[C@H](CC(=O)O)NC(=O)[C@H](CO)NC(=O)[C@@H](NC(=O)[C@](C)(Cc1ccccc1F)NC(=O)[C@@H](NC(=O)CNC(=O)[C@H](CCC(=O)O)NC(=O)C(C)(C)NC(=O)[C@@H](N)Cc1ccc(O)cc1)[C@@H](C)O)[C@@H](C)O)[C@@H](C)CC)[C@@H](C)CC)C(=O)N[C@@H](CCC(=O)O)C(=O)NCC(=O)NCC(=O)N1CCC[C@H]1C(=O)N[C@@H](CO)C(=O)N[C@@H](CO)C(=O)NCC(=O)N[C@@H](C)C(=O)N1CCC[C@H]1C(=O)N1CCC[C@H]1C(=O)N1CCC[C@H]1C(=O)N[C@@H](CO)C(N)=O [Example 238] (H-Y[Aib]EGT[αMePhe(2-F)]TSDLSI[αMeL]LD[Orn]K([AEEA-AEEA-γGlu-C18 diacid])AQ[Aib]EFI[dE][αMeY]LIEGGPSSGAPPPS-NH2) | 0.0296 | 0.0403 | 0.548 | 0.0241 | 230 |
| CC[C@H](C)[C@H](NC(=O)[C@H](CC(C)C)NC(=O)[C@H](Cc1ccc(O)cc1)NC(=O)[C@@H](CCC(=O)O)NC(=O)[C@@H](NC(=O)[C@H](Cc1ccccc1)NC(=O)[C@H](CCC(=O)O)NC(=O)C(C)(C)NC(=O)[C@H](CCC(N)=O)NC(=O)[C@H](C)NC(=O)[C@H](CCCCNC(=O)COCCOCCNC(=O)COCCOCCNC(=O)CC[C@H](NC(=O)CCCCCCCCCCCCCCCCC(=O)O)C(=O)O)NC(=O)[C@H](CCCN)NC(=O)[C@H](CC(=O)O)NC(=O)[C@H](CC(C)C)NC(=O)[C@](C)(CC(C)C)NC(=O)[C@@H](NC(=O)[C@H](CO)NC(=O)[C@H](Cc1ccncc1)NC(=O)[C@H](CC(=O)O)NC(=O)[C@H](CO)NC(=O)[C@@H](NC(=O)[C@](C)(Cc1ccccc1F)NC(=O)[C@@H](NC(=O)CNC(=O)[C@H](CCC(=O)O)NC(=O)C(C)(C)NC(=O)[C@@H](N)Cc1ccc(O)cc1)[C@@H](C)O)[C@@H](C)O)[C@@H](C)CC)[C@@H](C)CC)C(=O)N[C@@H](CCC(=O)O)C(=O)NCC(=O)NCC(=O)N1CCC[C@H]1C(=O)N[C@@H](CO)C(=O)N[C@@H](CO)C(=O)NCC(=O)N[C@@H](C)C(=O)N1CCC[C@H]1C(=O)N1CCC[C@H]1C(=O)N1CCC[C@H]1C(=O)N[C@@H](CO)C(N)=O [Example 232] (H-Y[Aib]EGT[αMePhe(2-F)]TSD[4Pal]SI[αMeL]LD[Orn]K([AEEA-AEEA-γGlu-C18 diacid])AQ[Aib]EFI[dE]YLIEGGPSSGAPPPS-NH2) | 0.027 | 0.0544 | 5.62 | 0.0724 | > 1150 |
| CC[C@H](C)[C@H](NC(=O)[C@H](CC(C)C)NC(=O)[C@H](Cc1ccc(O)cc1)NC(=O)[C@H](CCC(=O)O)NC(=O)[C@@H](NC(=O)[C@H](Cc1ccccc1)NC(=O)[C@H](CCC(=O)O)NC(=O)C(C)(C)NC(=O)[C@H](CCC(N)=O)NC(=O)[C@H](C)NC(=O)[C@H](CCCCNC(=O)COCCOCCNC(=O)COCCOCCNC(=O)CC[C@H](NC(=O)CCCCCCCCCCCCCCCCC(=O)O)C(=O)O)NC(=O)[C@H](CCCCN)NC(=O)[C@H](CC(=O)O)NC(=O)[C@H](CC(C)C)NC(=O)[C@H](CC(C)C)NC(=O)[C@@H](NC(=O)[C@H](CO)NC(=O)[C@H](Cc1ccc(O)cc1)NC(=O)[C@H](CC(=O)O)NC(=O)[C@H](CO)NC(=O)[C@@H](NC(=O)[C@](C)(Cc1ccccc1)NC(=O)[C@@H](NC(=O)CNC(=O)[C@H](CCC(=O)O)NC(=O)C(C)(C)NC(=O)[C@@H](N)Cc1ccc(O)cc1)[C@@H](C)O)[C@@H](C)O)[C@@H](C)CC)[C@@H](C)CC)C(=O)N[C@@H](C)C(=O)NCC(=O)NCC(=O)N1CCC[C@H]1C(=O)N[C@@H](CO)C(=O)N[C@@H](CO)C(=O)NCC(N)=O [Example 310] (H-Y[Aib]EGT[αMeF]TSDYSILLDKK([AEEA-AEEA-γGlu-C18 diacid])AQ[Aib]EFIEYLIAGGPSSG-NH2; N-terminus assumed) | 0.0176 | 0.0315 | 1.7 | 0.0283 | 174 |
